Experimental data as given in patent US20250113823A1, “Arthropod Control Compositions” (priority 2022, published 2025).
Where two headings read alike, the source gives them in different places.

Experiments:
[1] = test system: Aedes aegypti; test: Warm Body assay, mosquito landings on treated warm body; type: in vivo; settings: for pest or weed control at 1 % / pest or weed control at 0.04 %: read-out: repellence; for pest or weed control at 0.04 %: intermediate concentration of 0.04% (Table 3); for pest or weed control at 0.0016 %: lowest concentration of 0.0016% (Table 3), read-out: reduce the number of mosquito landings
Protocol: The arthropod controlling effect according to the present invention is determined on mosquitoes using an adapted Warm Body assay as defined in Kröber T, Kessler S, Frei J, Bourquin M, Guerin PM. An in vitro assay for testing mosquito controlling compounds employing a warm body and carbon dioxide as a behavioral activator. J Am Mosq Control Assoc. 2010; 26: 381-386. Further information is provided in the accompanying examples
The controlling effect, repellence & spatial repellence, according to the present invention is determined by testing the Warm Body assay against the yellow fever mosquito, Aedes aegypti Rockefeller strain. […] Observations of controlling efficacy were made on host-seeking females of uniform age, 5 to 10 days old selected as mentioned in the publication mentioned hereinabove. Tested hungry females had access to 10% sugar solution but were not blood-fed. Further information is provided in the accompanying examples.
The published protocol has been adapted in not manually counting the landing mosquitoes but automatically using an automatic counting software, the switch from Anopheles gambiae to A. aegypti led to a decrease of mosquitoes' number placed in the tested cage due to the size difference (i.e. 30 mosquitoes instead of 50) and to an increase of lighting as A. aegypti is a diurnal mosquitoes (i.e. 150 lux instead of 4 lux). Further information is provided in the accompanying examples. […]
(§1) The controlling effect according to the present invention was assessed using an adapted Warm Body assay as defined in Kröber T, Kessler S, Frei J, Bourquin M, Guerin P M. 2010. J Am Mosq Control Assoc. 26: 381-386. In this in-vitro assay the number of mosquito landing on a warm body, simulating an attractive host treated with the tested stimuli, was measured in order to assess the repellence effect.
The published protocol has been adapted as the switch from Anopheles gambiae to Aedes aegypti led to a decrease of mosquitoes placed in the tested cage due to the size difference (i.e. 30 mosquitoes instead of 50) and to an increase of lighting since A. aegypti is a diurnal mosquitoes (i.e. 150 lux instead of 4 lux).
(§2) On the sandblasted glass Petri dish covering the warm body (28.3 cm^2), 100 μL of the compounds diluted at different concentrations in ethanol was applied. The number of mosquito landing on the warm body was counted for each stimulus and pure ethanol (solvent) as control.

[2] = test system: Ixodes ricinus; test: Warm Plate assay, tick repellence; settings: for pest or weed control at 400 µg/mL / pest or weed control at 2000 µg/mL / pest or weed control at 10000 µg/mL: Ixodes ricinus, read-out: Percentage of repellence of ticks Ixodes ricinus on the warm plate
[3] = test system: Anopheles gambiae; test: Warm Body assay, mosquito landings on treated warm body; type: in vivo; settings: Anopheles gambiae, read-out: Percentage of repellence of mosquitoes Anopheles gambiae landing on the warm body; for pest or weed control at 4470 µg/mL: 4.47 mg/mL (Table 4); for pest or weed control at 10000 µg/mL: 10 mg/mL (Table 4)
Protocol: Anopheles gambiae is also a model organism as it is anthropophilic and transmits malaria.
as §1, §2

[4] = Aedes aegypti, 0.016 mg/mL (Table 3), read-out: Percentage of repellence of mosquitoes Aedes aegypti landing on the warm body
[5] = Aedes aegypti, 0.4 mg/mL (Table 3), read-out: Percentage of repellence of mosquitoes Aedes aegypti landing on the warm body
[6] = Aedes aegypti, 10 mg/mL (Table 3), read-out: Percentage of repellence of mosquitoes Aedes aegypti landing on the warm body
[7] = Aedes aegypti, highest tested concentration, 1% (Table 3)

SMILES | pest or weed control at 400 µg/mL [2] [%] | pest or weed control at 2000 µg/mL [2] [%] | pest or weed control at 10000 µg/mL [2] [%] | pest or weed control at 16 µg/mL [1, 4] [%] | pest or weed control at 400 µg/mL [1, 5] [%] | pest or weed control at 10000 µg/mL [1, 6] [%] | pest or weed control at 1 % [1, 7] [%] | pest or weed control at 0.04 % ([1]; Aedes aegypti) [%] | pest or weed control at 4470 µg/mL [3] [%] | pest or weed control at 10000 µg/mL [3] [%] | pest or weed control at 0.0016 % ([1]; Aedes aegypti) [%] | further results
C=CCc1cc(OC)c(O)c(OC)c1 [compound 1191, 4-allyl-2,6-dimethoxyphenol] | 41.7 | 58.3 | 91.7 | – | – | – | – | – | – | – | – | pest or weed control at 3.2 µg/mL ([1]; Aedes aegypti, 0.0032 mg/mL (Table 1), read-out: Percentage of repellence of mosquitoes Aedes aegypti landing on the warm body): 60%; pest or weed control at 7.1 µg/mL ([1]; Aedes aegypti, 0.0071 mg/mL (Table 1), read-out: Percentage of repellence of mosquitoes Aedes aegypti landing on the warm body): 52%; pest or weed control at 16 µg/mL ([1]; Aedes aegypti, 0.016 mg/mL (Table 1), read-out: Percentage of repellence of mosquitoes Aedes aegypti landing on the warm body): 70%; pest or weed control at 35.7 µg/mL ([1]; Aedes aegypti, 0.0357 mg/mL (Table 1), read-out: Percentage of repellence of mosquitoes Aedes aegypti landing on the warm body): 68%; pest or weed control at 53 µg/mL ([1]; Aedes aegypti, 0.053 mg/mL (Table 1), read-out: Percentage of repellence of mosquitoes Aedes aegypti landing on the warm body): 67%; pest or weed control at 80 µg/mL ([1]; Aedes aegypti, 0.08 mg/mL (Table 1), read-out: Percentage of repellence of mosquitoes Aedes aegypti landing on the warm body): 62%; pest or weed control at 119 µg/mL ([1]; Aedes aegypti, 0.119 mg/mL (Table 1), read-out: Percentage of repellence of mosquitoes Aedes aegypti landing on the warm body): 50%; pest or weed control at 178 µg/mL ([1]; Aedes aegypti, 0.178 mg/mL (Table 1), read-out: Percentage of repellence of mosquitoes Aedes aegypti landing on the warm body): 86%; pest or weed control at 267 µg/mL ([1]; Aedes aegypti, 0.267 mg/mL (Table 1), read-out: Percentage of repellence of mosquitoes Aedes aegypti landing on the warm body): 86%; pest or weed control at 400 µg/mL ([1]; Aedes aegypti, 0.4 mg/mL (Table 1), read-out: Percentage of repellence of mosquitoes Aedes aegypti landing on the warm body): 93%; pest or weed control at 598 µg/mL ([1]; Aedes aegypti, 0.598 mg/mL (Table 1), read-out: Percentage of repellence of mosquitoes Aedes aegypti landing on the warm body): 98%; pest or weed control at 890 µg/mL ([1]; Aedes aegypti, 0.89 mg/mL (Table 1), read-out: Percentage of repellence of mosquitoes Aedes aegypti landing on the warm body): 98%; pest or weed control at 2000 µg/mL ([1]; Aedes aegypti, 2 mg/mL (Table 1), read-out: Percentage of repellence of mosquitoes Aedes aegypti landing on the warm body): 97%; pest or weed control at 4470 µg/mL ([1]; Aedes aegypti, 4.47 mg/mL (Table 1), read-out: Percentage of repellence of mosquitoes Aedes aegypti landing on the warm body): 98%; pest or weed control at 10000 µg/mL ([1]; Aedes aegypti, 10 mg/mL (Table 1), read-out: Percentage of repellence of mosquitoes Aedes aegypti landing on the warm body): 100%; reduce mosquito landing ([1]; since the lowest concentrations assessed (Table 1)): ≥ 50%
CCOc1cc(COC)ccc1O [compound 1271, 2-ethoxy-4-(methoxymethyl)phenol] | – | – | – | 29 | 84 | 96 | > 90 | > 75 | 95 | 92 | – | –
CCCc1ccc2c(c1)OC(C(C)=O)O2 (stereo not shown) [compound 908, 1-(5-propyl-1,3-benzodioxol-2-yl)ethanone] | – | – | – | 10 | 37 | 85 | – | – | 74 | 84 | – | pest or weed control at 178 µg/mL ([3]; 0.178 mg/mL (Table 4)): 61%; pest or weed control at 267 µg/mL ([3]; 0.267 mg/mL (Table 4)): 95%; pest or weed control at 400 µg/mL ([3]; 0.4 mg/mL (Table 4)): 51%
COc1cc(C(C)=O)ccc1O [compound 1468, 1-(4-hydroxy-3-methoxyphenyl)ethanone] | – | – | – | 64 | 74 | 90 | – | – | 59 | 79 | > 50 | –
COc1ccc(C=O)c(OC(C)=O)c1 [compound 1472, (2-formyl-5-methoxyphenyl) acetate] | 0 | 54.5 | 100 | 31 | 81 | 100 | > 90 | > 75 | – | – | – | mosquito landing within the two minutes of experiments ([1]; highest tested concentration, 1% (Table 3)): protect the attractive stimulus for any mosquito landing; ticks repelled ([2]; concentration of 1% (Table 10)): repel all the ticks
COc1ccc(C=O)c(OC)c1 [compound 1558, 2,4-dimethoxybenzaldehyde] | 16.7 | 38.5 | 91.7 | 86 | 89 | 86 | – | > 75 | – | – | > 50 | –
